Experimental data from PubChem BioAssay (NCI).
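In this assay, cells in 96-well plates receive the compound at five concentrations for 48 hours. Endpoints are linearly interpolated between the surrounding concentrations. The concentration for 50% growth inhibition is given as GI50. TGI marks complete inhibition of growth.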

Columns and labels:
Assay in all cases: NCI-60 cell line screen, 48 h
NCI/ADR-RES ovarian = system: NCI/ADR-RES ovarian
NCI-H522 lung = system: NCI-H522 lung
SF-268 CNS = system: SF-268 CNS
HCT-116 colon = system: HCT-116 colon
SF-295 CNS = system: SF-295 CNS
COLO 205 colon = system: COLO 205 colon
PC-3 prostate = system: PC-3 prostate
HOP-92 NSCLC = system: HOP-92 NSCLC
NCI-H226 lung = system: NCI-H226 lung
DU-145 prostate = system: DU-145 prostate
RPMI-8226 leukemia = system: RPMI-8226 leukemia
LOX IMVI melanoma = system: LOX IMVI melanoma
HL-60(TB) leukemia = system: HL-60(TB) leukemia
U251 CNS = system: U251 CNS
MCF7 breast = system: MCF7 breast
MOLT-4 leukemia = system: MOLT-4 leukemia
A498 renal = system: A498 renal
SK-MEL-2 melanoma = system: SK-MEL-2 melanoma
M14 melanoma = system: M14 melanoma
HT29 colon = system: HT29 colon
HCC-2998 colon = system: HCC-2998 colon
IGROV1 ovarian = system: IGROV1 ovarian
CAKI-1 renal = system: CAKI-1 renal
SR leukemia = system: SR leukemia
OVCAR-4 ovarian = system: OVCAR-4 ovarian
MDA-MB-435 = system: MDA-MB-435
EKVX NSCLC = system: EKVX NSCLC
SNB-19 CNS = system: SNB-19 CNS
HCT-15 colon = system: HCT-15 colon
SF-539 CNS = system: SF-539 CNS
OVCAR-5 ovarian = system: OVCAR-5 ovarian
SW-620 colon = system: SW-620 colon
OVCAR-3 ovarian = system: OVCAR-3 ovarian
SN12C renal = system: SN12C renal
A549 NSCLC = system: A549 NSCLC
UACC-257 melanoma = system: UACC-257 melanoma
RXF 393 renal = system: RXF 393 renal
KM12 colon = system: KM12 colon
NCI-H460 lung = system: NCI-H460 lung
TK-10 renal = system: TK-10 renal
CCRF-CEM leukemia = system: CCRF-CEM leukemia
OVCAR-8 ovarian = system: OVCAR-8 ovarian
K-562 leukemia = system: K-562 leukemia
NCI-H23 lung = system: NCI-H23 lung
ACHN renal = system: ACHN renal
UO-31 renal = system: UO-31 renal
SK-MEL-5 melanoma = system: SK-MEL-5 melanoma
MDA-MB-231 breast = system: MDA-MB-231 breast
T-47D breast = system: T-47D breast
SK-MEL-28 melanoma = system: SK-MEL-28 melanoma
786-0 renal = system: 786-0 renal
BT-549 breast = system: BT-549 breast
SK-OV-3 ovarian = system: SK-OV-3 ovarian
HS 578T breast = system: HS 578T breast
SNB-75 CNS = system: SNB-75 CNS
HOP-62 NSCLC = system: HOP-62 NSCLC
UACC-62 melanoma = system: UACC-62 melanoma

COc1ccc(CCn2c3c(c4c(O)cccc42)C(=O)c2ccccc2-3)cc1OC
GI50 (NCI/ADR-RES ovarian): 21 µM | TGI (NCI/ADR-RES ovarian): > 69.2 µM | GI50 (NCI-H522 lung): 20.8 µM | TGI (NCI-H522 lung): > 60.4 µM | GI50 (SF-268 CNS): 38.9 µM | TGI (SF-268 CNS): > 100 µM | GI50 (HCT-116 colon): 26.1 µM | TGI (HCT-116 colon): > 57.5 µM | GI50 (SF-295 CNS): 30.8 µM | TGI (SF-295 CNS): > 81.6 µM | GI50 (COLO 205 colon): 29.1 µM | TGI (COLO 205 colon): > 87.3 µM | GI50 (PC-3 prostate): 37.4 µM | TGI (PC-3 prostate): > 100 µM | GI50 (HOP-92 NSCLC): > 72.5 µM | TGI (HOP-92 NSCLC): > 100 µM | GI50 (NCI-H226 lung): > 56.1 µM | TGI (NCI-H226 lung): > 100 µM | GI50 (DU-145 prostate): > 60.6 µM | TGI (DU-145 prostate): > 100 µM | GI50 (RPMI-8226 leukemia): 21.2 µM | TGI (RPMI-8226 leukemia): > 70.8 µM | GI50 (LOX IMVI melanoma): > 45 µM | TGI (LOX IMVI melanoma): > 73.3 µM | GI50 (HL-60(TB) leukemia): 20.3 µM | TGI (HL-60(TB) leukemia): 53 µM | GI50 (U251 CNS): 41.8 µM | TGI (U251 CNS): > 100 µM | GI50 (MCF7 breast): 34.8 µM | TGI (MCF7 breast): > 100 µM | GI50 (MOLT-4 leukemia): 19.9 µM | TGI (MOLT-4 leukemia): 63.9 µM | GI50 (A498 renal): > 100 µM | TGI (A498 renal): > 100 µM | GI50 (SK-MEL-2 melanoma): 24.1 µM | TGI (SK-MEL-2 melanoma): > 95.3 µM | GI50 (M14 melanoma): 43.3 µM | TGI (M14 melanoma): > 84.4 µM | GI50 (HT29 colon): 43.5 µM | TGI (HT29 colon): > 100 µM | GI50 (HCC-2998 colon): 19.5 µM | TGI (HCC-2998 colon): 43.4 µM | GI50 (IGROV1 ovarian): 0.818 µM | TGI (IGROV1 ovarian): > 47.4 µM | GI50 (CAKI-1 renal): 36.3 µM | TGI (CAKI-1 renal): > 96.5 µM | GI50 (SR leukemia): 12.9 µM | TGI (SR leukemia): 34 µM | GI50 (OVCAR-4 ovarian): 71.8 µM | TGI (OVCAR-4 ovarian): > 100 µM | GI50 (MDA-MB-435): 20 µM | TGI (MDA-MB-435): > 83.7 µM | GI50 (EKVX NSCLC): 29.3 µM | TGI (EKVX NSCLC): > 94.7 µM | GI50 (SNB-19 CNS): > 100 µM | TGI (SNB-19 CNS): > 100 µM | GI50 (HCT-15 colon): 22.5 µM | TGI (HCT-15 colon): > 73.4 µM | GI50 (SF-539 CNS): 6.65 µM | TGI (SF-539 CNS): > 51.2 µM | GI50 (OVCAR-5 ovarian): > 42 µM | TGI (OVCAR-5 ovarian): > 84.2 µM | GI50 (SW-620 colon): 31.1 µM | TGI (SW-620 colon): > 75.6 µM | GI50 (OVCAR-3 ovarian): 54.1 µM | TGI (OVCAR-3 ovarian): > 100 µM | GI50 (SN12C renal): 50.7 µM | TGI (SN12C renal): > 100 µM | GI50 (A549 NSCLC): 32.9 µM | TGI (A549 NSCLC): > 100 µM | GI50 (UACC-257 melanoma): 52.6 µM | TGI (UACC-257 melanoma): 98.6 µM | GI50 (RXF 393 renal): > 79 µM | TGI (RXF 393 renal): > 100 µM | GI50 (KM12 colon): 22.1 µM | TGI (KM12 colon): > 81.9 µM | GI50 (NCI-H460 lung): 31.2 µM | TGI (NCI-H460 lung): > 96.5 µM | GI50 (TK-10 renal): 28.6 µM | TGI (TK-10 renal): > 74.1 µM | GI50 (CCRF-CEM leukemia): 20 µM | TGI (CCRF-CEM leukemia): > 66.8 µM | GI50 (OVCAR-8 ovarian): 34.3 µM | TGI (OVCAR-8 ovarian): > 83.6 µM | GI50 (K-562 leukemia): 12.5 µM | TGI (K-562 leukemia): 69.7 µM | GI50 (NCI-H23 lung): 25.3 µM | TGI (NCI-H23 lung): > 77.7 µM | GI50 (ACHN renal): 13.6 µM | TGI (ACHN renal): > 52.7 µM | GI50 (UO-31 renal): 37.5 µM | TGI (UO-31 renal): > 100 µM | GI50 (SK-MEL-5 melanoma): 18.8 µM | TGI (SK-MEL-5 melanoma): > 60.3 µM | GI50 (MDA-MB-231 breast): 41.5 µM | TGI (MDA-MB-231 breast): > 90.9 µM | GI50 (T-47D breast): 67.9 µM | TGI (T-47D breast): > 100 µM | GI50 (SK-MEL-28 melanoma): > 80.2 µM | TGI (SK-MEL-28 melanoma): > 100 µM | GI50 (786-0 renal): 36.8 µM | TGI (786-0 renal): > 69.4 µM | GI50 (BT-549 breast): 6.57 µM | TGI (BT-549 breast): > 47.7 µM | GI50 (SK-OV-3 ovarian): > 100 µM | TGI (SK-OV-3 ovarian): > 100 µM | GI50 (HS 578T breast): 46.2 µM | TGI (HS 578T breast): > 85.4 µM | GI50 (SNB-75 CNS): > 100 µM | TGI (SNB-75 CNS): > 100 µM | GI50 (HOP-62 NSCLC): > 35.6 µM | TGI (HOP-62 NSCLC): > 59.3 µM | GI50 (UACC-62 melanoma): 21.5 µM | TGI (UACC-62 melanoma): > 72.9 µM
